One data set addresses HIV-1 PR (Human immunodeficiency virus type 1 group M subtype B, UniProt P04585). Nature of the data set: HIV-protease inhibitory activity assay (FRET peptide substrate). The data set is classed as biochemical. Conditions: Test Example 1. The procedure, abridged: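 HIV-1 PR (0.83 ng) preincubated with compounds 20 min at room temperature in 0.1 mol/L NaAc, 0.5 mol/L NaCl, 1 mmol/L EDTA, 1 mmol/L DTT, 0.05% Tween 20, pH 4.8. Cleavage of HiLyte Fluor 488/QXL 520 FRET peptide (2 μmol/L) read after 60 minutes at 485/535 nm; IC50 from four-parameter logistic fit.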

Data set [1] is described as follows: Evaluation of total body clearance (CLtot), intravenous administration. The data set is classed as in vivo, Sprague-Dawley (SD). Conditions: rat (SD), intravenous administration 0.5-10 mg/kg; CLtot = dose/AUC. The procedure, abridged:
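Plasma levels quantified by LC/MS/MS after intravenous tail-vein dosing (0.5-10 mg/kg, compound-dependent; n=2-3). AUC from pharmacokinetic analysis; total clearance calculated as dose/AUC.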

On to `COc1ccc(S(=O)(=O)N(CC(C)C)CC(O)C(Cc2ccc(NCc3cc(OC)ccc3-c3sc4c(c3C(=O)O)CC(C)(C)CC4)cc2)NC(=O)OC2COC3(C)OCCC23)cc1` (stereo not drawn) [Compound I-566], for which, at HIV-1 PR, the IC50 (usually the concentration that gives 50% inhibition) was 1.61 nM. Besides, in data set [1], the rat_CLt is recorded as 0.727 mL/min/kg.
`COc1ccc(S(=O)(=O)N(CC(C)C)CC(O)C(Cc2ccc(N3CC(Oc4ccccc4C(=O)Nc4sc5c(c4C(=O)O)CC(C)(C)CC5)C3)cc2)NC(=O)OC2COC3(C)OCCC23)cc1` (stereo not drawn) [Compound I-575] had an IC50 at HIV-1 PR of 8.32 nM. The same compound returned a rat_CLt in data set [1] of 0.267 mL/min/kg.
With `COc1ccc(S(=O)(=O)N(CC(C)C)CC(O)C(Cc2ccc(NCc3ncccc3-c3sc4c(c3C(=O)O)CC(C)(C)CC4)cc2)NC(=O)OC2COC3(C)OCCC23)cc1` (stereo not drawn) [Compound I-305], at HIV-1 PR, the midpoint of inhibition, the IC50, lay at 1.99 nM. The compound further came in with a rat_CLt in data set [1] of 1.55 mL/min/kg.
At HIV-1 PR, `COc1ccc(S(=O)(=O)N(CC(C)C)CC(O)C(Cc2ccc(NCc3cccc(C(F)(F)F)c3-c3sc4c(c3C(=O)O)CC(C)(C)CC4)cc2)NC(=O)OC2COC3(C)OCCC23)cc1` (stereo not drawn) [Compound I-485] showed an IC50 of 2.28 nM. Besides, the rat_CLt in data set [1] is 0.45 mL/min/kg.
On HIV-1 PR, `COc1ccc(S(=O)(=O)N(CC(C)C)CC(O)C(Cc2ccc(NC(C)c3ccccc3-c3sc4c(c3C(=O)O)CC(C)(C)CC4)cc2)NC(=O)OC2COC3(C)OCCC23)cc1` (stereo not drawn) [Compound I-603] returned an IC50 of 3.65 nM. The rat_CLt in data set [1] is recorded as 5.83 mL/min/kg.
Compound `COc1ccc(S(=O)(=O)N(CC(C)C)CC(O)C(Cc2ccc(N(C)Cc3cc(N4CCCC4=O)ccc3-c3sc4c(c3C(=O)O)CC(C)(C)CC4)cc2)NC(=O)OC2COC3(C)OCCC23)cc1` (stereo not drawn) [Compound I-584] returned an IC50 at HIV-1 PR of 2.3 nM. The same compound had a rat_CLt in data set [1] of 0.77 mL/min/kg.
The corresponding values for `COc1ccc(S(=O)(=O)N(CC(C)C)CC(O)C(Cc2ccc(NCc3ccc(C(F)(F)F)cc3-c3sc4c(c3C(=O)O)CC(C)(C)CC4)cc2)NC(=O)OC2COC3(C)OCCC23)cc1` (stereo not drawn) [Compound I-526] are 6.47 nM and 0.632 mL/min/kg.
The corresponding values for `COc1ccc(S(=O)(=O)N(CC(C)C)CC(O)C(Cc2ccc(NCc3ccccc3-c3sc4c(c3C(=O)O)CC(C)(C)CC4)cc2)NC(=O)OC2COC3(C)OCCC23O)cc1` (stereo not drawn) [Compound I-890] are 1.74 nM and 0.652 mL/min/kg.
The compound `COc1ccc(S(=O)(=O)N(CC(C)C)CC(O)C(Cc2ccc(NCc3ccccc3-c3sc4c(c3C(=O)O)CC(C)(C)CC4)cc2)NC(=O)OC2COC3OCCC23)cc1` (stereo not drawn) [Compound I-852] gave an IC50 against HIV-1 PR of 1.99 nM. For the same compound, the rat_CLt in data set [1] came to 2.25 mL/min/kg.
On HIV-1 PR, `COc1ccc(S(=O)(=O)N(CC(C)C)CC(O)C(Cc2ccc(NCc3nc(N4CCCC4)sc3-c3ccc(-c4sc5c(c4C(=O)O)CC(C)(C)CC5)cc3)cc2)NC(=O)OC2COC3(C)OCCC23)cc1` (stereo not drawn) [Compound I-714] had an IC50 of 4.5 nM. Moreover, the rat_CLt in data set [1] worked out at 0.0783 mL/min/kg.
The like results for `COc1ccc(S(=O)(=O)N(CC(C)C)CC(O)C(Cc2ccc(N3CCC(Oc4ccc(C(F)(F)F)cc4-c4sc5c(c4C(=O)O)CC(C)(C)CC5)C3)cc2)NC(=O)OC2COC3(C)OCCC23)cc1` (stereo not drawn) [Compound I-514] were, in that order, 6.21 nM and 3.01 mL/min/kg.
In turn, `COc1ccc(S(=O)(=O)N(CC(C)C)CC(O)C(Cc2ccc(NCC3=C(c4sc5c(c4C(=O)O)CC(C)(C)CC5)CCCCC3)cc2)NC(=O)OC2COC3(C)OCCC23)cc1` (stereo not drawn) [Compound I-524] displayed an IC50 against HIV-1 PR of 5.03 nM. The rat_CLt in data set [1] was 0.23 mL/min/kg.
For `COc1ccc(S(=O)(=O)N(CC(C)C)CC(O)C(Cc2ccc(NCc3cc(F)ccc3C(=O)Nc3sc4c(c3C(=O)O)CC(C)(C)CC4)cc2)NC(=O)OC2COC3(C)OCCC23)cc1` (stereo not drawn) [Compound I-625], at HIV-1 PR, the IC50 amounted to 5.07 nM. Further, the rat_CLt in data set [1] stood at 0.0688 mL/min/kg.
At HIV-1 PR, `COc1ccc(S(=O)(=O)N(CC(C)C)CC(O)C(Cc2ccc(NCc3cc(N(C)C)ccc3-c3sc4c(c3C(=O)O)CC(C)(C)CC4)cc2)NC(=O)OC2COC3(C)OCCC23)cc1` (stereo not drawn) [Compound I-455] had an IC50 of 2.38 nM. Moreover, the rat_CLt in data set [1] was 0.236 mL/min/kg.
For the compound `COc1ccc(S(=O)(=O)N(CC(C)C)CC(O)C(Cc2ccc(NCC3=C(C(=O)Nc4sc5c(c4C(=O)O)CC(C)(C)CC5)CCC3)cc2)NC(=O)OC2COC3(C)OCCC23)cc1` (stereo not drawn) [Compound I-589], the IC50 against HIV-1 PR amounted to 3.48 nM. Besides, in data set [1], the rat_CLt turned out to be 0.311 mL/min/kg.
Consider `COc1ccc(S(=O)(=O)N(CC(C)C)CC(O)C(Cc2ccc(NCc3ccccc3-c3sc(N(C4CCCCC4)C4CCCCC4)nc3C(=O)O)cc2)NC(=O)OC2COC3(C)OCCC23)cc1` (stereo not drawn) [Compound I-454], for which, at HIV-1 PR, the IC50 was determined as 5.51 nM. The same compound registered a rat_CLt in data set [1] of 4.02 mL/min/kg.
In turn, `COc1ccc(S(=O)(=O)N(CC(C)C)CC(O)C(Cc2ccc(NCc3cc4c(cc3-c3sc5c(c3C(=O)O)CC(C)(C)CC5)OCO4)cc2)NC(=O)OC2COC3(C)OCCC23)cc1` (stereo not drawn) [Compound I-552] yielded an IC50 against HIV-1 PR of 1.41 nM. This compound registered a rat_CLt in data set [1] of 0.985 mL/min/kg.
In turn, `CC1(C)CCc2sc(NC(=O)c3ccccc3CNc3ccc(CC(NC(=O)OC4COC5(C)OCCC45)C(O)CN(CC4CCC4)S(=O)(=O)c4ccc5ncsc5c4)cc3)c(C(=O)O)c2C1` (stereo not drawn) [Compound I-617] showed an IC50 against HIV-1 PR of 3.13 nM. This compound yielded a rat_CLt in data set [1] of 0.098 mL/min/kg.
The corresponding values for `COc1ccc(S(=O)(=O)N(CC(C)C)CC(O)C(Cc2ccc(N(C)Cc3cc4ccccc4cc3-c3sc4c(c3C(=O)O)CC(C)(C)CC4)cc2)NC(=O)OC2COC3(C)OCCC23)cc1` (stereo not drawn) [Compound I-582] are 9.36 nM and 0.179 mL/min/kg.
The like results for `COc1ccc(S(=O)(=O)N(CC(C)C)CC(O)C(Cc2ccc(N(C)Cc3cccc(-c4sc5c(c4C(=O)O)CC(C)(C)CC5)c3C)cc2)NC(=O)OC2COC3(C)OCCC23)cc1` (stereo not drawn) [Compound I-510] were, in that order, 10.6 nM and 1.08 mL/min/kg.
Compound `C=CCNc1ccc(-c2sc3c(c2C(=O)O)CC(C)(C)CC3)c(CNc2ccc(CC(NC(=O)OC3COC4(C)OCCC34)C(O)CN(CC(C)C)S(=O)(=O)c3ccc(OC)cc3)cc2)c1` (stereo not drawn) [Compound I-676] came in with an IC50 against HIV-1 PR of 2.42 nM. Moreover, in data set [1], the rat_CLt is 0.145 mL/min/kg.
On HIV-1 PR, `COc1ccc(S(=O)(=O)N(CC2CCCC2)CC(O)C(Cc2ccc(NCc3ccccc3C(=O)Nc3sc4c(c3C(=O)O)CC(C)(C)CC4)cc2)NC(=O)OC2COC3OCCC23)cc1` (stereo not drawn) [Compound I-857] came in with a half-inhibitory concentration (IC50) of 3.41 nM. The compound further showed a rat_CLt in data set [1] of 0.132 mL/min/kg.
Turning to `COc1ccc(S(=O)(=O)N(CC(C)C)CC(O)C(Cc2ccc(NCc3ncccc3C(=O)Nc3sc4c(c3C(=O)O)CC(C)(C)CC4)cc2)NC(=O)OC2COC3OCCC23)cc1` (stereo not drawn) [Compound I-882], at HIV-1 PR, the IC50 came out at 2.28 nM. Besides, the rat_CLt in data set [1] turned out to be 0.26 mL/min/kg.
`COc1ccc(S(=O)(=O)N(CC(C)C)CC(O)C(Cc2ccc(N(C)Cc3cc(N4CCN(C)CC4)ccc3-c3sc4c(c3C(=O)O)CC(C)(C)CC4)cc2)NC(=O)OC2COC3(C)OCCC23)cc1` (stereo not drawn) [Compound I-701] came in with an IC50 against HIV-1 PR of 1.49 nM. Moreover, the rat_CLt in data set [1] came to 2.71 mL/min/kg.
Take `COc1ccc(S(=O)(=O)N(CC(C)C)CC(O)C(Cc2ccc(NCc3cc(O)ccc3-c3sc4c(c3C(=O)O)CC(C)(C)CC4)cc2)NC(=O)OC2COC3(C)OCCC23)cc1` (stereo not drawn) [Compound I-561]: the IC50 at HIV-1 PR was 1.35 nM. For the same compound, the rat_CLt in data set [1] worked out at 4.48 mL/min/kg.
On HIV-1 PR, `CN(Cc1ccccc1C(=O)Nc1sc2c(c1C(=O)O)CC(C)(C)CC2)c1ccc(CC(NC(=O)OC2COC3(C)OCCC23)C(O)CN(CC2CCCC2)S(=O)(=O)c2ccc3ncsc3c2)cc1` (stereo not drawn) [Compound I-636] returned an IC50 of 4.37 nM. In data set [1], this compound registered a rat_CLt of 0.372 mL/min/kg.
On HIV-1 PR, `COc1ccc(S(=O)(=O)N(CC(C)C)CC(O)C(Cc2ccc(N(C)Cc3cc(N4CCCC4)ccc3-c3sc4c(c3C(=O)O)CC(C)(C)CC4)cc2)NC(=O)OC2COC3(C)OCCC23)cc1` (stereo not drawn) [Compound I-539] displayed an IC50 of 2.91 nM. Further, the rat_CLt in data set [1] amounted to 0.156 mL/min/kg.
The like results for `COc1ccc(S(=O)(=O)N(CC(C)C)CC(O)C(Cc2ccc(NCc3cc(N4CCCC4)ccc3-c3sc4c(c3C(=O)O)CC(C)(C)CC4)cc2)NC(=O)OC2COC3(C)OCCC23)cc1` (stereo not drawn) [Compound I-480] were, in that order, 2.36 nM and 0.0997 mL/min/kg.
As for `COc1ccc(S(=O)(=O)N(CC(C)C)CC(O)C(Cc2ccc(N3CCC(c4ccccc4-c4sc5c(c4C(=O)O)CC(C)(C)CC5)C3)cc2)NC(=O)OC2COC3(C)OCCC23)cc1` (stereo not drawn) [Compound I-522], the IC50 at HIV-1 PR is 13.6 nM. The compound further gave a rat_CLt in data set [1] of 0.144 mL/min/kg.
The corresponding values for `COc1ccc(S(=O)(=O)N(CC(C)C)CC(O)C(Cc2ccc(NCC3COCCC3c3sc4c(c3C(=O)O)CC(C)(C)CC4)cc2)NC(=O)OC2COC3(C)OCCC23)cc1` (stereo not drawn) [Compound I-399] are 1.94 nM and 0.487 mL/min/kg.
For the compound `COc1ccc(S(=O)(=O)N(CC2CCC2)CC(O)C(Cc2ccc(NCc3ccccc3C(=O)Nc3sc4c(c3C(=O)O)CC(C)(C)CC4)cc2)NC(=O)OC2COC3(C)OCCC23)cc1` (stereo not drawn) [Compound I-602], on HIV-1 PR, 3.67 nM corresponded to half-maximal inhibition (IC50). In data set [1], this compound registered a rat_CLt of 0.0667 mL/min/kg.
On to `COc1ccc(S(=O)(=O)N(CC(C)C)CC(O)C(Cc2ccc(NCc3ccc(F)c(-c4sc5c(c4C(=O)O)CC(C)(C)CC5)c3)cc2)NC(=O)OC2COC3(C)OCCC23)cc1` (stereo not drawn) [Compound I-287], for which 2.02 nM corresponded to half-maximal inhibition against HIV-1 PR (IC50). Besides, in data set [1], the rat_CLt came to 2.73 mL/min/kg.
With `COc1ccc(S(=O)(=O)N(CC(C)C)CC(O)C(Cc2ccc(N(C)Cc3ccccc3-n3nc4c(c3C(=O)O)CC3(CCCC3)CC4)cc2)NC(=O)OC2COC3(C)OCCC23)cc1` (stereo not drawn) [Compound I-466], on HIV-1 PR, the IC50 was found to be 4.28 nM. The compound also showed a rat_CLt in data set [1] of 1.75 mL/min/kg.

Values taken from US20170253607A1, “LONG-ACTING HIV PROTEASE INHIBITOR” (Shionogi & Co., Ltd., priority 2014, published 2017).
